Measured values reported in US10189841B2, “Purinones as ubiquitin-specific protease 1 inhibitors” (Forma Therapeutics, Inc., priority 2015, dated 2019).

Target: USP1 (construct USP1 (I-785, GG670, 671AA)/UAF1 (I-677)-Flag) (Homo sapiens (Human), UniProt O94782, G670A/G671A)
Experiment: Ubiquitin-Rhodamine 110 assay for USP1 activity
Format: biochemical
Conditions: USP1/UAF1 25 pM, Ub-Rh110 25 nM, 30 min preincubation
Outline: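 Two formats with the USP1/UAF1 complex and 25 nM ubiquitin-rhodamine 110 in pH 8.0 Tris buffer with calcium, glutathione and detergent. Single-point screening used 10 µM, 100 pM enzyme and 45 min. Inhibition was set against no-enzyme and DMSO wells.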

Sequence of USP1 (construct USP1 (I-785, GG670, 671AA)/UAF1 (I-677)-Flag) (O94782 whole entry G670A/G671A): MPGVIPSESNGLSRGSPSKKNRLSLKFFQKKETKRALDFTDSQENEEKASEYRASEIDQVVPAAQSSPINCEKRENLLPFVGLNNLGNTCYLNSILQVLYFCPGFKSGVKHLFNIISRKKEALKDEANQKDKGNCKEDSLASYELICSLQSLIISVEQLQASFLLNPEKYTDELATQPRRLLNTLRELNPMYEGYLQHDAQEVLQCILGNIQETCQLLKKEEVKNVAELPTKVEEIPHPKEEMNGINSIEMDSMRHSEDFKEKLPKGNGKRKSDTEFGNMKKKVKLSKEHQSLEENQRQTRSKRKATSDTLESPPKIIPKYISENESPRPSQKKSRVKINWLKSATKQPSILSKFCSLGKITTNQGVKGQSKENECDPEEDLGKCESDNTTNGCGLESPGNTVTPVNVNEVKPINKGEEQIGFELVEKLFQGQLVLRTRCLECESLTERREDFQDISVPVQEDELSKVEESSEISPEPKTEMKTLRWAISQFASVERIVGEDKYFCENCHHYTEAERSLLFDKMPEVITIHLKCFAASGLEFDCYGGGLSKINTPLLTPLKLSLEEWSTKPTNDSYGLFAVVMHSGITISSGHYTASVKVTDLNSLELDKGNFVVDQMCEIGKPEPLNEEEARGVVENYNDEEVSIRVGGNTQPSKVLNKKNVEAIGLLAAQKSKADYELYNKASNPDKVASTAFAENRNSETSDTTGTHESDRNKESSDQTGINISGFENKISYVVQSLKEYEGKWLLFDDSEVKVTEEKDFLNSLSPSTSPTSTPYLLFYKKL
Sequence of USP1 (construct USP1 (I-785, GG670, 671AA)/UAF1 (I-677)-Flag) (Q8TAF3 whole entry partner): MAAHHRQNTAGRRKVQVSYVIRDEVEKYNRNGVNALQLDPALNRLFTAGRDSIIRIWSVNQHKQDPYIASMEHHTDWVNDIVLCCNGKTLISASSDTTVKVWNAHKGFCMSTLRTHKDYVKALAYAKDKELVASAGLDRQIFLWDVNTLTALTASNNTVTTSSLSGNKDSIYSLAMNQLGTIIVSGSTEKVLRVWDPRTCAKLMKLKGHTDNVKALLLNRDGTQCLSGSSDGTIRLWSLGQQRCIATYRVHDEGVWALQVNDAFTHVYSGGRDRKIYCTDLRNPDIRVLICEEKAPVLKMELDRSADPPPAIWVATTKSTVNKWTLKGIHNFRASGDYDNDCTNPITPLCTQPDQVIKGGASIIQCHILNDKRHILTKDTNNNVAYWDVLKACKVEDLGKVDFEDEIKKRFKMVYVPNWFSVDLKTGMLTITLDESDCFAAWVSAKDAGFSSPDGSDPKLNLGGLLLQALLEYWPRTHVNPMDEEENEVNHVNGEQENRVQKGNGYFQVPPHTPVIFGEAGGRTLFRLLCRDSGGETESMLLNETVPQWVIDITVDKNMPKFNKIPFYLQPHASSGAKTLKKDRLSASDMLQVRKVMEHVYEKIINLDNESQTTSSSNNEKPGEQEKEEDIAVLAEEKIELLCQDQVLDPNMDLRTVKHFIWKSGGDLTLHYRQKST

| SMILES | IC50 |
| --- | --- |
| Cc1nc(CN(C)C(=O)c2ccc(Cn3c(=O)[nH]c4cnc(-c5ccccc5C(C)C)nc43)cc2)cs1 [Compound I-371, 4-((2-(2-isopropylphenyl)-8-oxo-7,8-dihydro-9H-purin-9-yl)methyl)-N-methyl-N-((2-methylthiazol-4-yl)methyl)benzamide] | 50 to 200 nM |
| CC(C)c1ccccc1-c1ncc2[nH]c(=O)n(Cc3ccc(C(=O)Nc4nccn4C)cc3)c2n1 [Compound I-372, 4-((2-(2-isopropylphenyl)-8-oxo-7,8-dihydro-9H-purin-9-yl)methyl)-N-(1-methyl-1H-imidazol-2-yl)benzamide] | 50 to 200 nM |
| CCN(C)C(=O)c1ccc(Cn2c(=O)[nH]c3cnc(-c4ccccc4C(C)C)nc32)cc1 [Compound I-373, N-ethyl-4-((2-(2-isopropylphenyl)-8-oxo-7,8-dihydro-9H-purin-9-yl)methyl)-N-methylbenzamide] | < 50 nM |
| CCCN(C)C(=O)c1ccc(Cn2c(=O)[nH]c3cnc(-c4ccccc4C(C)C)nc32)cc1 [Compound I-374, 4-((2-(2-isopropylphenyl)-8-oxo-7,8-dihydro-9H-purin-9-yl)methyl)-N-methyl-N-propylbenzamide] | < 50 nM |
| CC(C)c1ccccc1-c1ncc2[nH]c(=O)n(Cc3ccc(C(=O)N(C)C(C)C)cc3)c2n1 [Compound I-375, N-isopropyl-4-((2-(2-isopropylphenyl)-8-oxo-7,8-dihydro-9H-purin-9-yl)methyl)-N-methylbenzamide] | < 50 nM |
| CC(C)c1ccccc1-c1ncc2[nH]c(=O)n(Cc3ccc(C(=O)N(C)CCO)cc3)c2n1 [Compound I-376, N-(2-hydroxyethyl)-4-((2-(2-isopropylphenyl)-8-oxo-7,8-dihydro-9H-purin-9-yl)methyl)-N-methylbenzamide] | 200 to 2000 nM |
| CC(C)c1ccccc1-c1ncc2[nH]c(=O)n(Cc3ccc(C(=O)N4CC(O)C4)cc3)c2n1 [Compound I-377, 9-(4-(3-hydroxyazetidine-1-carbonyl)benzyl)-2-(2-isopropylphenyl)-7,9-dihydro-8H-purin-8-one] | > 2000 nM |
| CC(C)c1ccccc1-c1ncc2[nH]c(=O)n(Cc3ccc(C(=O)N4CC[C@H](O)C4)cc3)c2n1 [Compound I-378, (S)-9-(4-(3-hydroxypyrrolidine-1-carbonyl)benzyl)-2-(2-isopropylphenyl)-7,9-dihydro-8H-purin-8-one] | 200 to 2000 nM |
| CC(C)c1ccccc1-c1ncc2[nH]c(=O)n(Cc3ccc(C(=O)N(C)C4CC4)cc3)c2n1 [Compound I-379, N-cyclopropyl-4-((2-(2-isopropylphenyl)-8-oxo-7,8-dihydro-9H-purin-9-yl)methyl)-N-methylbenzamide] | < 50 nM |
| CC(C)c1ccccc1-c1ncc2[nH]c(=O)n(Cc3ccc(C(=O)N(C)CC(=O)N(C)C)cc3)c2n1 [Compound I-380, N-(2-(dimethylamino)-2-oxoethyl)-4-((2-(2-isopropylphenyl)-8-oxo-7,8-dihydro-9H-purin-9-yl)methyl)-N-methylbenzamide] | 50 to 200 nM |
| CC(C)c1ccccc1-c1ncc2[nH]c(=O)n(Cc3ccc(C(=O)NC4COC4)cc3)c2n1 [Compound I-381, 4-((2-(2-isopropylphenyl)-8-oxo-7,8-dihydro-9H-purin-9-yl)methyl)-N-(oxetan-3-yl)benzamide] | 200 to 2000 nM |
| CC(C)c1ccccc1-c1ncc2[nH]c(=O)n(Cc3ccc(C(=O)N4CCC[C@H]4CO)cc3)c2n1 [Compound I-382, (S)-9-(4-(2-(hydroxymethyl)pyrrolidine-1-carbonyl)benzyl)-2-(2-isopropylphenyl)-7,9-dihydro-8H-purin-8-one] | 200 to 2000 nM |
| CC(=O)N1CCN(C(=O)c2ccc(Cn3c(=O)[nH]c4cnc(-c5ccccc5C(C)C)nc43)cc2)CC1 [Compound I-383, 9-(4-(4-acetylpiperazine-1-carbonyl)benzyl)-2-(2-isopropylphenyl)-7,9-dihydro-8H-purin-8-one] | 200 to 2000 nM |
| COCCO[C@H]1CCN(C(=O)c2ccc(Cn3c(=O)[nH]c4cnc(-c5ccccc5C(C)C)nc43)cc2)C1 [Compound I-384, (S)-2-(2-isopropylphenyl)-9-(4-(3-(2-methoxyethoxy)pyrrolidine-1-carbonyl)benzyl)-7,9-dihydro-8H-purin-8-one] | 200 to 2000 nM |
| CC(C)c1ccccc1-c1ncc2[nH]c(=O)n(Cc3ccc(C(=O)N4C[C@@H](C)O[C@@H](C)C4)cc3)c2n1 [Compound I-385, 9-(4-((2R,6S)-2,6-dimethylmorpholine-4-carbonyl)benzyl)-2-(2-isopropylphenyl)-7,9-dihydro-8H-purin-8-one] | 50 to 200 nM |
| CC(C)c1ccccc1-c1ncc2[nH]c(=O)n(Cc3ccc(C(=O)N4CC(F)C4)cc3)c2n1 [Compound I-386, 9-(4-(3-fluoroazetidine-1-carbonyl)benzyl)-2-(2-isopropylphenyl)-7,9-dihydro-8H-purin-8-one] | 50 to 200 nM |
| CC(C)c1ccccc1-c1ncc2[nH]c(=O)n(Cc3ccc(C(=O)N[C@@H]4CCC[C@@H]4O)cc3)c2n1 [Compound I-387, N-((1R,2S)-2-hydroxycyclopentyl)-4-((2-(2-isopropylphenyl)-8-oxo-7,8-dihydro-9H-purin-9-yl)methyl)benzamide] | 50 to 200 nM |

| SMILES | IC50 |
| --- | --- |
| CC(C)c1ccccc1-c1ncc2[nH]c(=O)n(Cc3ccc(C(=O)N4CCC(F)(F)CC4)cc3)c2n1 [Compound I-388, 9-(4-(4,4-difluoropiperidine-1-carbonyl)benzyl)-2-(2-isopropylphenyl)-7,9-dihydro-8H-purin-8-one] | 200 to 2000 nM |
| CC(C)c1ccccc1-c1ncc2[nH]c(=O)n(Cc3ccc(C(=O)N4CCCC4)cc3)c2n1 [Compound I-389, 2-(2-isopropylphenyl)-9-(4-(pyrrolidine-1-carbonyl)benzyl)-7,9-dihydro-8H-purin-8-one] | < 50 nM |
| CC(C)c1ccccc1-c1ncc2[nH]c(=O)n(Cc3ccc(C(=O)N4CCCC4C)cc3)c2n1 (stereo not drawn) [Compound I-390, 2-(2-isopropylphenyl)-9-(4-(2-methylpyrrolidine-1-carbonyl)benzyl)-7,9-dihydro-8H-purin-8-one] | < 50 nM |
| COCC1(N(C)C(=O)c2ccc(Cn3c(=O)[nH]c4cnc(-c5ccccc5C(C)C)nc43)cc2)CC1 [Compound I-391, 4-((2-(2-isopropylphenyl)-8-oxo-7,8-dihydro-9H-purin-9-yl)methyl)-N-(1-(methoxymethyl)cyclopropyl)-N-methylbenzamide] | < 50 nM |
| CC(C)c1ccccc1-c1ncc2[nH]c(=O)n(Cc3ccc(C(=O)N4CCC(F)(F)C4)cc3)c2n1 [Compound I-392, 9-(4-(3,3-difluoropyrrolidine-1-carbonyl)benzyl)-2-(2-isopropylphenyl)-7,9-dihydro-8H-purin-8-one] | < 50 nM |
| CC(C)c1ccccc1-c1ncc2[nH]c(=O)n(Cc3ccc(C(=O)N4CC5(CCCO5)C4)cc3)c2n1 [Compound I-393, 9-(4-(5-oxa-2-azaspiro[3.4]octane-2-carbonyl)benzyl)-2-(2-isopropylphenyl)-7,9-dihydro-8H-purin-8-one] | 200 to 2000 nM |
| CC(C)c1ccccc1-c1ncc2[nH]c(=O)n(Cc3ccc(C(=O)N4CC5(CCOC5)C4)cc3)c2n1 [Compound I-394, 9-(4-(6-oxa-2-azaspiro[3.4]octane-2-carbonyl)benzyl)-2-(2-isopropylphenyl)-7,9-dihydro-8H-purin-8-one] | 200 to 2000 nM |
| CC(C)c1ccccc1-c1ncc2[nH]c(=O)n(Cc3ccc(C(=O)N4CCC[C@@H]4C)cc3)c2n1 [Compound I-395, (S)-2-(2-isopropylphenyl)-9-(4-(2-methylpyrrolidine-1-carbonyl)benzyl)-7,9-dihydro-8H-purin-8-one] | < 50 nM |
| COC[C@@H]1CCCN1C(=O)c1ccc(Cn2c(=O)[nH]c3cnc(-c4ccccc4C(C)C)nc32)cc1 [Compound I-396, (S)-2-(2-isopropylphenyl)-9-(4-(2-(methoxymethyl)pyrrolidine-1-carbonyl)benzyl)-7,9-dihydro-8H-purin-8-one] | 200 to 2000 nM |
| CCC1CCCCN1C(=O)c1ccc(Cn2c(=O)[nH]c3cnc(-c4ccccc4C(C)C)nc32)cc1 (stereo not drawn) [Compound I-397, 9-(4-(2-ethylpiperidine-1-carbonyl)benzyl)-2-(2-isopropylphenyl)-7,9-dihydro-8H-purin-8-one] | < 50 nM |
| CC(C)c1ccccc1-c1ncc2[nH]c(=O)n(Cc3ccc(C(=O)N4CCCCC4C)cc3)c2n1 (stereo not drawn) [Compound I-398, 2-(2-isopropylphenyl)-9-(4-(2-methylpiperidine-1-carbonyl)benzyl)-7,9-dihydro-8H-purin-8-one] | < 50 nM |
| CC1CCCN(C(=O)c2ccc(Cn3c(=O)[nH]c4cnc(-c5ccccc5C(C)C)nc43)cc2)C1 (stereo not drawn) [Compound I-399, 2-(2-isopropylphenyl)-9-(4-(3-methylpiperidine-1-carbonyl)benzyl)-7,9-dihydro-8H-purin-8-one] | < 50 nM |
| COCC1CCCCN1C(=O)c1ccc(Cn2c(=O)[nH]c3cnc(-c4ccccc4C(C)C)nc32)cc1 (stereo not drawn) [Compound I-400, 2-(2-isopropylphenyl)-9-(4-(2-(methoxymethyl)piperidine-1-carbonyl)benzyl)-7,9-dihydro-8H-purin-8-one] | 50 to 200 nM |
| COC1CCCN(C(=O)c2ccc(Cn3c(=O)[nH]c4cnc(-c5ccccc5C(C)C)nc43)cc2)C1 (stereo not drawn) [Compound I-401, 2-(2-isopropylphenyl)-9-(4-(3-methoxypiperidine-1-carbonyl)benzyl)-7,9-dihydro-8H-purin-8-one] | 50 to 200 nM |
| CC(C)c1ccccc1-c1ncc2[nH]c(=O)n(Cc3ccc(C(=O)N(C)C4CCOC4)cc3)c2n1 (stereo not drawn) [Compound I-402, 4-((2-(2-isopropylphenyl)-8-oxo-7,8-dihydro-9H-purin-9-yl)methyl)-N-methyl-N-(tetrahydrofuran-3-yl)benzamide] | 200 to 2000 nM |
| COC[C@H]1CCCN1C(=O)c1ccc(Cn2c(=O)[nH]c3cnc(-c4ccccc4C(C)C)nc32)cc1 [Compound I-403, (R)-2-(2-isopropylphenyl)-9-(4-(2-(methoxymethyl)pyrrolidine-1-carbonyl)benzyl)-7,9-dihydro-8H-purin-8-one] | 200 to 2000 nM |
